Measurements: US20260199239A1, “IONIZABLE LIPIDS WITH MALONATE TAILS” (ModernaTX, Inc., priority 2022, published 2026)
“And” between values parts separate entries of the source, which are not always exact repeats. Equal entries are not always repeated.

What was measured:
[1] = LNP particle size and polydispersity index (PDI); assay type: physicochemical; conditions: LNP lipid:PEG-1:DSPC:Cholesterol 48:2:11:39, hEPO mRNA, 20 mM Tris 8% Sucrose pH 7.4
Description: A Zetasizer Nano ZS (Malvern Instruments Ltd, Malvern, Worcestershire, UK) can be used to determine the particle size, the polydispersity index (PDI) and the zeta potential of the nanoparticle compositions in 1×PBS in determining particle size and 15 mM PBS in determining zeta potential.
LNPs may be characterized by a variety of methods. For example, microscopy (e.g., transmission electron microscopy or scanning electron microscopy) may be used to examine the morphology and size distribution of a nanoparticle composition. Dynamic light scattering or potentiometry (e.g., potentiometric titrations) may be used to measure zeta potentials. Dynamic light scattering may also be utilized to determine particle sizes. Instruments such as the Zetasizer Nano ZS (Malvern Instruments Ltd, Malvern, Worcestershire, UK) may also be used to measure multiple characteristics of a nanoparticle composition, such as particle size, polydispersity index, and zeta potential.
(§1) LNPs comprising ionizable lipids described herein were formulated according to Table 2 and the following general procedure.
(§2) General procedure for one-pot LNP formation: Lipid stock solutions in ethanol are mixed with mRNA in 25 mM acetate solution at a 3:1 ratio in a microfluidic mixer. The resulting LNPs, which are at approximately pH 5 and 25% EtOH, are buffer exchanged by dialysis into the storage buffer. The LNP solutions are then concentrated by Amicon® and purified by a 0.2 uM sterile filter.

[2] = mRNA encapsulation by the LNP (% EE, total mRNA in TX); assay type: physicochemical; conditions: LNP lipid:PEG-1:DSPC:Cholesterol 48:2:11:39, hEPO mRNA
Description: For nanoparticle compositions including an RNA, a QUANT-IT™ RIBOGREEN® RNA assay (Invitrogen Corporation Carlsbad, CA) can be used to evaluate the encapsulation of an RNA by the nanoparticle composition. The samples are diluted to a concentration of approximately 5 μg/mL in a TE buffer solution (10 mM Tris-HCl, 1 mM EDTA, pH 7.5). 50 μL of the diluted samples are transferred to a polystyrene 96 well plate and either 50 μL of TE buffer or 50 μL of a 2% Triton X-100 solution is added to the wells. The plate is incubated at a temperature of 37° C. for 15 minutes. The RIBOGREEN® reagent is diluted 1:100 in TE buffer, and 100 μL of this solution is added to each well. The fluorescence intensity can be measured using a fluorescence plate reader (Wallac Victor 1420 Multilablel Counter; Perkin Elmer, Waltham, MA) at an excitation wavelength of, for example, about 480 nm and an emission wavelength of, for example, about 520 nm. The fluorescence values of the reagent blank are subtracted from that of each of the samples and the percentage of free RNA is determined by dividing the fluorescence intensity of the intact sample (without addition of Triton X-100) by the fluorescence value of the disrupted sample (caused by the addition of Triton X-100).
The efficiency of encapsulation of a therapeutic and/or prophylactic agent describes the amount of therapeutic and/or prophylactic agent that is encapsulated or otherwise associated with an LNP after preparation, relative to the initial amount provided. The encapsulation efficiency is desired to be high (e.g., close to 100%). The encapsulation efficiency may be measured, for example, by comparing the amount of therapeutic and/or prophylactic agent in a solution containing a loaded LNP before and after breaking up the loaded LNP with one or more organic solvents or detergents. Fluorescence may be used to measure the amount of free therapeutic and/or prophylactic agent (e.g., RNA) in a solution. For the loaded LNPs formulated with lipids of the disclosure, the encapsulation efficiency of a therapeutic and/or prophylactic agent is at least 50%, for example 50%, 55%, 60%, 65%, 70%, 75%, 80%, 85%, 90%, 91%, 92%, 93%, 94%, 95%, 96%, 97%, 98%, 99%, or 100%. In some embodiments, the encapsulation efficiency is at least 80%. In some embodiments, the encapsulation efficiency is at least 90%. In some embodiments, the encapsulation efficiency of the therapeutic and/or prophylactic agent is between 80% and 100%.
as §1, §2

[3] = Osmolality of LNP formulation; assay type: physicochemical; conditions: LNP formulation in 20 mM Tris 8% Sucrose storage buffer
Text: as §1

[4] = Endotoxin content of LNP formulation; conditions: LNP lipid:PEG-1:DSPC:Cholesterol 48:2:11:39, hEPO mRNA
Text: as §1

[5] = system: hEPO protein expression; experiment: hEPO protein expression in vivo after systemic administration of LNPs
Description: In order to monitor how effectively various nanoparticle compositions deliver therapeutic and/or prophylactic agents to targeted cells, different nanoparticle compositions including a particular therapeutic and/or prophylactic agent (for example, a modified or naturally occurring RNA such as an mRNA) are prepared and administered to animal populations. Animals (e.g., mice, rats, or non-human primates) are intravenously, intramuscularly, intraarterially, or intratumorally administered a single dose including a nanoparticle composition comprising a lipid of the disclosure and an mRNA expressing a protein, e.g., human erythropoietin (hEPO) or luciferase. A control composition including PBS may also be employed.
Upon administration of nanoparticle compositions to an animal, dose delivery profiles, dose responses, and toxicity of particular formulations and doses thereof can be measured by enzyme-linked immunosorbent assays (ELISA), bioluminescent imaging, or other methods. For nanoparticle compositions including mRNA, time courses of protein expression can also be evaluated. Samples collected from the animals for evaluation may include blood, sera, and tissue (for example, muscle tissue from the site of an intramuscular injection and internal tissue); sample collection may involve sacrifice of the animals.
ELISA test kits may provide hEPO concentrations in milli International Units per mL (mIU/mL), e.g., per mL of tested serum. Typically, the EPO concentration of unknown sample is calculated from a calibration curve. Standards (used for the calibration curve) are calibrated according to the 2. IRP WHO preparation. In some embodiments, mIU/mL corresponds to […]. Nanoparticle compositions including mRNA are useful in the evaluation of the efficacy and usefulness of various formulations for the delivery of therapeutic and/or prophylactic agents. Higher levels of protein expression induced by administration of a composition including an mRNA will be indicative of higher mRNA translation and/or nanoparticle composition mRNA delivery efficiencies. As the non-RNA components are not thought to affect translational machineries themselves, a higher level of protein expression is likely indicative of a higher efficiency of delivery of the therapeutic and/or prophylactic agent by a given nanoparticle composition relative to other nanoparticle compositions or the absence thereof.
In some embodiments, an in vivo expression assay may be used to assess potency of expression of lipids of the disclosure. In some embodiments, the protein expression (hEPO) may be measured in mice following administration of a nanoparticle comprising a lipid of the disclosure (e.g., a loaded LNP). In some embodiments, lipid nanoparticles of the instant disclosure may be intravenously administered to mice (e.g., CD-1 mice).
In some embodiments, the concentration of hEPO in serum may be tested after administration (e.g., about six hours after injection). In some embodiments, residual levels of the lipids of the disclosure in organs or tissue of the subject after administration (e.g., 6 h, 12 h, 18 h, 24 h, 36h, or 48 h after administration) are measured. In some embodiments, the residual levels of the lipids of the disclosure in the liver are measured. In some embodiments, an in vitro expression assay may be used to assess nanoparticles of the disclosure. In some embodiments, cells (e.g., HeLa) may be plated in an imaging plate (e.g., poly-D-lysine coated) and cultured in serum (e.g., human serum, mouse serum, cynomolgus monkey serum or fetal bovine serum). In some embodiments, lipid nanoparticles of the disclosure comprising an mRNA expressing fluorescent protein (e.g., green fluorescent protein (GFP)) and a fluorescent lipid (e.g., rhodamine-DOPE) may be added to the plate and the plate imaged for uptake and expression. In some embodiments, expression may be evaluated by measuring fluorescence (e.g., from GFP). […]

[6] = pH of LNP formulation; assay type: physicochemical; conditions: LNP formulation in 20 mM Tris 8% Sucrose storage buffer
Text: as §1

[7] = Table 3B groups 1A-8A, ratio to L5 LNP
[8] = Table 3A groups 1-8, ratio to L5 LNP

CCCCCCCCC(CCCCCCCC)OC(=O)CCCCCCCN(CCCCCCC(C(=O)OCCCCCC)C(=O)OCCCCCC)CCCNC(=O)CC [Compound M5, Dihexyl 2-(6-((8-(heptadecan-9-yloxy)-8-oxooctyl)(3-propionamidopropyl)amino)hexyl)malonate]
PDI [1]: 0.496 | Size (nm) [1]: 126.7 nm | % EE [2]: 69.8% | Osmolality (mOsm/kg) [3]: 320 mOsm/kg | Endotoxin (EU/mL) [4]: 2.7 EU/mL | 6 hr protein expression ratio cf. L5 [5, 7]: 1.37 | 24 hr protein expression ratio cf. L5 [5, 7]: 1.15 | pH [6]: 6.962

CCCCCCCCC(CCCCCCCC)OC(=O)CCCCCCCN(CCO)CCCCCCCC(=O)OCCC(CCCC)CCCC [Compound L6, reference compound]
PDI [1]: 0.166 | Size (nm) [1]: 58.2 nm | % EE [2]: 96.9% | Osmolality (mOsm/kg) [3]: 321 mOsm/kg | Endotoxin (EU/mL) [4]: 2.3 EU/mL | 6 hr protein expression ratio cf. L5 [5, 7]: 0.94 | 24 hr protein expression ratio cf. L5 [5, 7]: 0.84 | pH [6]: 7.468

CCCCCCCCC(CCCCCCCC)OC(=O)CCCCCCCN(CCCCCCC(C(=O)OCCCCCC)C(=O)OCCCCCC)CCCNc1c(NC)c(=O)c1=O [Compound M3, Dihexyl 2-(6-((8-(heptadecan-9-yloxy)-8-oxooctyl)(3-((2-(methylamino)-3,4-dioxocyclobut-1-en-1-yl)amino)propyl)amino)hexyl)malonate]
PDI [1]: 0.148 and 0.132 | Size (nm) [1]: 59.3 nm and 59.1 nm | % EE [2]: 97.8% and 98.3% | Osmolality (mOsm/kg) [3]: 317 mOsm/kg and 318 mOsm/kg | Endotoxin (EU/mL) [4]: 2 EU/mL | 6 hr protein expression ratio cf. L5 [5, 8]: 1.0 | 6 hr protein expression ratio cf. L5 [5, 7]: 2.53 | 24 hr protein expression ratio cf. L5 [5, 8]: 1.2 | 24 hr protein expression ratio cf. L5 [5, 7]: 2.42 | pH [6]: 7.155

CCCCCCCCCOC(=O)CCCCCCCN(CCO)CCCCCCCC(=O)OC(CCCCCCCC)CCCCCCCC [Compound L4, reference compound]
Size (nm) [1]: 74.9 nm and 104.5 nm | % EE [2]: 94.8% and 92.6% | Osmolality (mOsm/kg) [3]: 317 mOsm/kg and 311 mOsm/kg | Endotoxin (EU/mL) [4]: 2.3 EU/mL | 6 hr protein expression ratio cf. L5 [5, 8]: 0.1 | 6 hr protein expression ratio cf. L5 [5, 7]: 0.08 | 24 hr protein expression ratio cf. L5 [5, 8]: 0.1 | 24 hr protein expression ratio cf. L5 [5, 7]: 0.07 | pH [6]: 7.444

CCCCCCCCC(CCCCCCCC)OC(=O)CCCCCCCN(CCO)CCCCCCC(C(=O)OCCCCCC)C(=O)OCCCCCC [Compound M1, Dihexyl 2-(6-((8-(heptadecan-9-yloxy)-8-oxooctyl)(2-hydroxyethyl)amino)hexyl)malonate]
PDI [1]: 0.164 and 0.128 | Size (nm) [1]: 57.0 nm and 58.7 nm | % EE [2]: 96.9% and 94.1% | Osmolality (mOsm/kg) [3]: 314 mOsm/kg and 320 mOsm/kg | Endotoxin (EU/mL) [4]: 2.4 EU/mL | 6 hr protein expression ratio cf. L5 [5, 8]: 0.9 | 6 hr protein expression ratio cf. L5 [5, 7]: 1.70 | 24 hr protein expression ratio cf. L5 [5, 8]: 0.9 | 24 hr protein expression ratio cf. L5 [5, 7]: 1.46 | pH [6]: 7.452

CCCCCCCCC(CCCCCCCC)OC(=O)CCCCCCCN(CCCCCCC(C(=O)OCCCCCC)C(=O)OCCCCCC)CCCNC(C)=O [Compound M4, Dihexyl 2-(6-((3-acetamidopropyl)(8-(heptadecan-9-yloxy)-8-oxooctyl)amino)hexyl)malonate]
PDI [1]: 0.099 | Size (nm) [1]: 68.7 nm | % EE [2]: 92.2% | Osmolality (mOsm/kg) [3]: 321 mOsm/kg | Endotoxin (EU/mL) [4]: 2.6 EU/mL | 6 hr protein expression ratio cf. L5 [5, 7]: 0.34 | 24 hr protein expression ratio cf. L5 [5, 7]: 0.36 | pH [6]: 7.450

CCCCCCCCOC(=O)C(CCCCCCN(CCO)CCCCCCCC(=O)OC(CCCCCCCC)CCCCCCCC)C(=O)OCCCCCCCC [Compound M2, Dioctyl 2-(6-((8-(heptadecan-9-yloxy)-8-oxooctyl)(2-hydroxyethyl)amino)hexyl)malonate]
PDI [1]: 0.186 | Size (nm) [1]: 58.0 nm | % EE [2]: 97.9% | Osmolality (mOsm/kg) [3]: 315 mOsm/kg | 6 hr protein expression ratio cf. L5 [5, 8]: 0.3 | 24 hr protein expression ratio cf. L5 [5, 8]: 0.3

CCCCCCCCC(CCCCCCCC)OC(=O)CCCCCCCN(CCCCCCCC(=O)OCCC(CCCC)CCCC)CCCNS(=O)(=O)CC [Compound L2, reference compound]
PDI [1]: 0.177 | Size (nm) [1]: 60.7 nm | % EE [2]: 95.8% | Osmolality (mOsm/kg) [3]: 315 mOsm/kg | 6 hr protein expression ratio cf. L5 [5, 8]: 0.7 | 24 hr protein expression ratio cf. L5 [5, 8]: 0.8
